Test results taken from US20110269790A1, “NOVEL THIENOPYRIDINES AS PHARMACOLOGICALLY ACTIVE AGENTS” (priority 2009, published 2011).
≈ marks a conversion by molar mass, not a printed value. Where “and” joins values, the source holds several entries; their conditions need not be identical. Equal values may be shown once. Read-outs that look alike come from different tables or passages of the source.

Experiments:
Wistar rats = test: Carrageenan induced paw edema model; assay type: in vivo, rat; conditions: for change in vivo at 100 mg/kg / inhibition in vivo at 100 mg/kg: Rattus norvegicus; for change in vivo at 100 mg/kg: read-out: % Increase in Paw Volume; for inhibition in vivo at 100 mg/kg: read-out: % Inhibition (paw volume)
Colo-205 (Colon cancer) = test: MTT assay, Colo-205; assay type: cell-based; conditions: for IC50: Homo sapiens, read-out: Colo-205 IC50
Description: (§1) A431 (Skin cancer), Colo-205 (Colon cancer), A549 (Lung cancer) cell lines were obtained from National Center for Cell science (NCCS), Pune, India. DMEM (Dulbeccos Modified Eagles Medium), MTT [3-(4,5-dimethylthiazol-2-yl)-2,5-diphenyl tetrazolium bromide], Trypsin, EDTA were purchased from Sigma Chemicals Co (St. Louis, Mo.), Fetal bovine serum were purchased from Arrow labs, 96 well flat bottom tissue culture plates were purchased from Tarson.
(§2) A431, Colo-205, A549 cell lines were grown as adherent cells in DMEM media supplemented with 10% fetal bovine serum, 100 μg/ml penicillin, 200 μg/ml streptomycin, 2 mM L-glutamine, and culture was maintained in a humidified atmosphere with 5% CO2. Stock solution of 10 mg/ml was prepared for test molecules in DMSO. From the stock, various dilutions were made with sterile water to get required concentration. A431, Colo-205, A549 cell lines were seeded at a density of 1×10^4 cells (cell number was determined by Trypan blue exclusion dye method) per each well in 100 μl of DMEM supplemented with 10% FBS. 12 hrs after seeding, above media was replaced with fresh DMEM supplemented with 10% FBS. Then, 10 μl sample from above stock solutions were added to each well in triplicates which gives final concentration of 100, 50, 25, 10 μg/well. The above cells were incubated for 48 hrs at 37° C. with 5% CO2. After 48 hrs incubation the above media was replaced with 100 μl of fresh DMEM with out FBS and to this 10 μl of MTT (5 mg dissolved in 1 ml of PBS) was added and incubated for 3 hrs at 37° C. with 5% CO2. After 3 hrs of incubation, the above media was removed with multi channel pipette, then 200 μl of DMSO was added to each well and incubated at 37° C. for 15 min. Finally, the plate was read at 570 nm using spectrophotometer (Spectra Max, Molecular devices).

A549 (Lung cancer) = test: MTT assay, A549; assay type: cell-based; conditions: for IC50: Homo sapiens, read-out: A549 IC50
Description: as §1, §2

yeast α-glucosidase = target: T1, yeast α-glucosidase (Saccharomyces cerevisiae, UniProt P53341); test: In-vitro yeast α-glucosidase inhibition assay; assay type: biochemical, bakers yeast; conditions: for inhibition at 39.063 µg/mL / inhibition at 78.125 µg/mL / inhibition at 156.25 µg/mL / inhibition at 312.5 µg/mL / inhibition at 625 µg/mL / inhibition at 1250 µg/mL / inhibition at 2500 µg/mL / inhibition at 5000 µg/mL: yeast α-glucosidase, read-out: % Inhibition (Mean ± S.E); for inhibition at 39.063 µg/mL: 0.039063 mg/ml; for inhibition at 78.125 µg/mL: 0.078125 mg/ml; for inhibition at 156.25 µg/mL: 0.15625 mg/ml; for inhibition at 312.5 µg/mL: 0.3125 mg/ml; for inhibition at 625 µg/mL: 0.625 mg/ml; for inhibition at 1250 µg/mL: 1.25 mg/ml; for inhibition at 2500 µg/mL: 2.5 mg/ml; for inhibition at 5000 µg/mL: 5 mg/ml
T1 construct: α-Glucosidase [(EC 3.2.1.20) Type I: from bakers yeast]
T1 sequence (P53341 whole entry): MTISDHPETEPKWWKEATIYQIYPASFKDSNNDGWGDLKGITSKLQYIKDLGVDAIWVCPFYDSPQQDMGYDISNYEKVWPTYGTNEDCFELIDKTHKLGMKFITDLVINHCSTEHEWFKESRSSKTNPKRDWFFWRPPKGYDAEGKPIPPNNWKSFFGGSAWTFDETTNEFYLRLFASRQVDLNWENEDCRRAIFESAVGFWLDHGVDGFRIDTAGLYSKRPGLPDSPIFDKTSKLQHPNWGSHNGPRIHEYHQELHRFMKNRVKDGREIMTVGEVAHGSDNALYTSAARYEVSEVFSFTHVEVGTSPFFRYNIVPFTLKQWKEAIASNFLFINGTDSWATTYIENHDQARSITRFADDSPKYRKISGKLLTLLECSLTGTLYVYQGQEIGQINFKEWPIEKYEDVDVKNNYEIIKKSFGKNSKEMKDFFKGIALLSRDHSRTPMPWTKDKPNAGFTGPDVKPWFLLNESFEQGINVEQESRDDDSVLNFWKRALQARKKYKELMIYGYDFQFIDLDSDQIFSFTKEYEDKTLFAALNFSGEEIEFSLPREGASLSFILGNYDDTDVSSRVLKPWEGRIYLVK
Description: Chemicals: α-Glucosidase [(EC 3.2.1.20) Type I: from bakers yeast], rat intestinal acetone powder (as a source of crude intestinal α-glucosidase), α-amylase [EC 3.2.1.1) Type VI B: from porcine pancreas], p-nitrophenyl α-D-glucopyranoside, 3,5-dinitro salicylic acid, soluble potato starch and 1-deoxyrojirimycine, were purchased from Sigma Chemical Co., St Louis, Mo., USA. Other chemicals of analytical grade were procured from indigenous manufacturers.
In-vitro a-Glucosidase Inhibition Assay: Yeast and intestinal a-glucosidase inhibitory activities were determined as per reported methods (Babu et al., 2004; Mc Dougall et al., 2005). Rat intestinal acetone powder in normal saline (100% w/v) was sonicated properly and the supernatant was used as a source of crude intestinal a-glucosidase after centrifugation. In brief, 20 μl, of test samples (100 mg/ml DMSO solution) were reconstituted in 100 μl of 100 mM-Phosphate buffer (pH 6.8) in a 96-well microplate and incubated with 50 μl yeast a-glucosidase (0.76 μ/ml in same buffer) or crude intestinal a-glucosidase for 5 min before 50-μl substrate (5 mM, […] prepared in same buffer) was added. Release of p-nitrophenyol was measured at 405 nm spectrophotometrically (Spectra Mas Plus 384, Molecular Device corporation, Sunnyvale, Calif., USA) 5 min after incubation with substrate, individual blank for test samples were prepared to correct background absorbance where the substrate was replaced with 50 μl of buffer. The control sample contained 20 μl DMSO in place of test samples. The percentage of enzyme inhibition was calculated as (A−B/A)×100 where A is represents the absorbance of the control without test samples, and B represents the absorbance in the presence of test samples. […] The IC50 values were calculated by applying logarithmic regression analysis from the mean inhibitory values.

[1] = test compounds 100 mg/kg oral, Indomethacin 10 mg/kg oral, 3 hrs after Carrageenan
[2] = 50 mg/kg oral, dose response study, n=6
[3] = 100 mg/kg oral, dose response study, n=6
[4] = 200 mg/kg oral, dose response study, n=6

Compound | change in vivo at 100 mg/kg (Wistar rats; [1]) | inhibition in vivo at 100 mg/kg (Wistar rats; [1]) | IC50 (Colo-205 (Colon cancer); COLO 205, MTT, 48 hrs) | IC50 (A549 (Lung cancer); A549, MTT, 48 hrs) | Yeast α-glucosidase enzyme inhibitory activity (in words) (yeast α-glucosidase) | melting point | Colo-205 IC50 (Colo-205 (Colon cancer); MTT, 48 hrs) | other results
Cc1sc2nc3c(c(N)c2c1C)CCCC3 [BN-2, 2,3-dimethyl-5,6,7,8-tetrahydrothieno[2,3-b]quinolin-4-amine] | 83.1 ± 2.66% | 20.6 ± 2.05% | 117 µg/mL (≈ 504 µM) | 50.1 µg/mL (≈ 216 µM) | strong significant inhibitory activity | 210 °C |  | inhibition at 39.063 µg/mL (yeast α-glucosidase): 15.3 ± 2.69%; inhibition at 78.125 µg/mL (yeast α-glucosidase): 20.1 ± 1.37%; inhibition at 156.25 µg/mL (yeast α-glucosidase): 25.9 ± 0.44%; inhibition at 312.5 µg/mL (yeast α-glucosidase): 33.4 ± 0.76%; inhibition at 625 µg/mL (yeast α-glucosidase): 39.2 ± 0.87%; inhibition at 1250 µg/mL (yeast α-glucosidase): 43.9 ± 1.92%; inhibition at 2500 µg/mL (yeast α-glucosidase): 53 ± 1.13%; inhibition at 5000 µg/mL (yeast α-glucosidase): 56.54 ± 0.28%
Cc1sc2nc3c(c(N)c2c1C)CCC3 [BN-1, 2,3-dimethyl-6,7-dihydro-5H-cyclopenta[b]thieno[3,2-e]pyridin-4-amine] | 87.9 ± 2.78% | 24.7 ± 5.49% | 245 µg/mL (≈ 1120 µM) | 190 µg/mL (≈ 870 µM) |  | 231 °C |  | 
Nc1c2c(nc3sc4c(c13)CCC4)CCCC2 [BN-14, 2,3,6,7,8,9-Hexahydro-1H-cyclopenta[4,5]thieno[2,3-b]quinolin-10-amine] |  | 33.5 ± 8.35% | 223 µg/mL (≈ 913 µM) | 79.4 µg/mL (≈ 325 µM) | strong significant inhibitory activity |  |  | % Inhibition (Wistar rats; [2]): 19.80 ± 2.24%; Percentage Swelling (50 mg/kg) (Wistar rats; [2]): 72.34 ± 1.73 %; % Inhibition (Wistar rats; [3]): 33.47 ± 6.70%; Percentage Swelling (100 mg/kg) (Wistar rats; [3]): 71.30 ± 3.72 %; % Inhibition (Wistar rats; [4]): 56.45% and 56.45 ± 3.12%; Percentage Swelling (200 mg/kg) (Wistar rats; [4]): 41.78 ± 3.31 %; inhibition at 39.063 µg/mL (yeast α-glucosidase): 19.6%; inhibition at 78.125 µg/mL (yeast α-glucosidase): 25.84 ± 0.13%; inhibition at 156.25 µg/mL (yeast α-glucosidase): 33.31 ± 0.04%; inhibition at 312.5 µg/mL (yeast α-glucosidase): 42.8 ± 1.38%; inhibition at 625 µg/mL (yeast α-glucosidase): 50.3 ± 3.39%; inhibition at 1250 µg/mL (yeast α-glucosidase): 63.8 ± 1.71%; inhibition at 2500 µg/mL (yeast α-glucosidase): 67.8 ± 1.18%; inhibition at 5000 µg/mL (yeast α-glucosidase): 72.2 ± 1.87%
Nc1c2c(nc3sc4c(c13)CCC4)CCCCCC2 [BN-17, 2,3,6,7,8,9,10,11-Octahydro-1H-cycloocta [b]cyclopenta[4,5]thieno[3,2-e]pyridin-12-amine] |  |  |  |  |  | 256 °C | 61.65 µg/mL | % Increase in Paw Volume (Wistar rats; [1]): 76.85 ± 6.45%; % Inhibition (paw volume) (Wistar rats; [1]): 6.87 ± 4.76%; A549 IC50 (A549 (Lung cancer); MTT, 48 hrs): 40.7 µg/mL; Yeast α Glucosidase Inhibition (Mean ± S.E) (yeast α-glucosidase; single concentration screen): 9.40 ± 4.49%
CC1CCc2c(nc3sc4c(c3c2N)CCC4)C1 (stereo not drawn) [BN-15, 7-Methyl-2,3,6,7,8,9-hexahydro-1H-cyclopenta[4,5]thieno[2,3-b]quinolin-10-amine] | 86.5 ± 17.1% | 23.5 ± 8.98% |  | 72.4 µg/mL (≈ 280 µM) | moderate inhibitory activity | 263.2 °C | No activity | 
Nc1c2c(nc3sc4c(c13)CCCC4)CCCC2 [BN-6, 1,2,3,4,7,8,9,10-Octahydrobenzo[4,5]thieno[2,3-b]quinolin-11-amine] | 109 ± 2.73% | 3.14 ± 1.96% | 162 µg/mL (≈ 627 µM) | 33.8 µg/mL (≈ 131 µM) | moderate inhibitory activity |  |  | 
Nc1c2c(nc3sc4c(c13)CCCC4)CCC2 [BN-5, 2,3,6,7,8,9-Hexahydro-1H-benzo[4,5]thieno[2,3-b]cyclopenta[e]pyridin-10-amine] | 101 ± 2.94% | 4.32 ± 1.19% |  | 144 µg/mL (≈ 591 µM) | moderate inhibitory activity | 221 °C | No activity | 
Nc1c2c(nc3sc4c(c13)CCCCC4)CCC2 [BN-18, 1,2,3,6,7,8,9,10-Octahydrocyclohepta[4,5] thieno[2,3-b]cyclopenta [e]pyridin-11-amine] | 62.8 ± 2% | 17.4 ± 0.27% | 47.8 µg/mL (≈ 185 µM) | 39.8 µg/mL (≈ 154 µM) | moderate inhibitory activity | 255 °C |  | 
Nc1c2c(nc3sc4c(c13)CCC4)CCC2 [BN-13, 1,2,3,6,7,8-hexahydrocyclopenta [b]cyclopenta[4,5] thieno[3,2-e]pyridin-9-amine] |  |  |  |  | moderate inhibitory activity | 245 °C |  | change in vivo at 100 mg/kg (Wistar rats; po, 3 h): 91.7 ± 25.7%; inhibition in vivo at 100 mg/kg (Wistar rats; po, 3 h): 12.3 ± 1.95%; IC50 (Colo-205 (Colon cancer); COLO 205, 48 h): 144 µg/mL (≈ 625 µM); IC50 (A549 (Lung cancer); A549, 48 h): 83.2 µg/mL (≈ 361 µM)
